Results: patent US20030104489A1, “Functional assay for agonist activation of receptors” (Pfizer Inc., priority 2001, published 2003)

Test system: D3-G[…]15 cells
Assay: FLIPR assay of intracellular Ca2+ release in D3-Gα15 cells, effect of pre-incubation time at 37 °C (Table 2)
Type: cell-based
Settings: for Ca2+ response (FLIPR signal), time at 37 °C: 5 min: 5 min pre-incubation at 37 °C; for Ca2+ response (FLIPR signal), time at 37 °C: 5 min / Ca2+ response (FLIPR signal), time at 37 °C: 15 min / % change (elevation of FLIPR signal, 5 min to 15 min pre-incubation at 37 °C): dopamine 100 nM; for Ca2+ response (FLIPR signal), time at 37 °C: 5 min / Ca2+ response (FLIPR signal), time at 37 °C: 15 min: (at or above EC90); for Ca2+ response (FLIPR signal), time at 37 °C: 15 min: 15 min pre-incubation at 37 °C; for % change (elevation of FLIPR signal, 5 min to 15 min pre-incubation at 37 °C): 15 min vs 5 min at 37 °C; for effect of prolonged preincubation at 37 °C on the induced Ca2+ response: ATP via endogenous purinergic receptors, ionomycin as ionophore
Protocol: The HEK293-Gα15 cell line stably expressing the D3 receptor was used to develop Ca^2+-based assay using the FLIPR-based method. Cells were plated in a 96 or 384 well poly-D lysine-coated FLIPR plates for 16-24 hours before the assay. Cells were loaded with cell dye-media solution (media −11 ml, dye-4 μM Fluo-4 AM, Pluronic® acid 22 ul, probenecid −110 ul of 260 mM solution) for 1 hour at 37° C. The plates were washed in the Skatron Embla™ plate washer with assay buffer (NaCl—0.145M, Glucose—0.01 M, KCl—0.005M, MgSO4—0.001 M, HEPES—0.01 M and CaCl2—0.002M) and stabilized for 30 minutes at 25° C. and 37° C., respectively, before starting the experiment. Antagonists were added 15 minutes prior to the agonist addition. The fluorescence intensities were measured using the excitation and emission wavelengths of 488 nm and 520 nm respectively. Data are taken as the average +S.D. of four replicates.
[…]. The elevation of FLIPR signal (in percentage) in 5 min and 15 min pre-incubation at 37° C. is shown.

| Compound | Ca2+ response (FLIPR signal), time at 37 °C: 5 min | Ca2+ response (FLIPR signal), time at 37 °C: 15 min | % change (elevation of FLIPR signal, 5 min to 15 min pre-incubation at 37 °C) | effect of prolonged preincubation at 37 °C on the induced Ca2+ response |
| --- | --- | --- | --- | --- |
| Nc1ncnc2c1ncn2[C@@H]1O[C@H](COP(=O)(O)OP(=O)(O)OP(=O)(O)O)[C@@H](O)[C@H]1O [ATP] | 2859 ± 630 | 3346 ± 171 | 17% | not affected |
| NCCc1ccc(O)c(O)c1 [Dopamine, dopamine] | 157 ± 47 | 550 ± 38 | 257% |  |
| C[C@H](CCC(=O)O)C[C@H](C)C[C@H](C)C(=O)/C=C(\O)[C@H](C)C[C@H](C)C/C=C/[C@@H](C)[C@@H](O)[C@@H](C)[C@@H](O)C[C@@H]1CC[C@@](C)([C@H]2CC[C@@](C)([C@@H](C)O)O2)O1 [ionomycin] | 8042 ± 652 | 8465 ± 132 | 5% | not affected |
